{"source": "paper PMC4076210", "about": "“Discovery of Novel AKT Inhibitors with Enhanced Anti-Tumor Effects in Combination with the MEK Inhibitor” (PLoS ONE, 2014)", "assay_in_all_cases": "Kinase panel", "assay_type_in_all_cases": "biochemical", "key": {"CDK2/cyclinE(h)": {"target": "T1, CDK2/cyclinE(h) (Homo sapiens, UniProt P24941)", "T1 construct": "purchased Millipore KinaseProfiler"}, "EphA1(h)": {"target": "T2, EphA1(h) (Homo sapiens, UniProt P21709)", "T2 construct": "purchased Millipore KinaseProfiler", "T2 sequence (P21709 26-976)": "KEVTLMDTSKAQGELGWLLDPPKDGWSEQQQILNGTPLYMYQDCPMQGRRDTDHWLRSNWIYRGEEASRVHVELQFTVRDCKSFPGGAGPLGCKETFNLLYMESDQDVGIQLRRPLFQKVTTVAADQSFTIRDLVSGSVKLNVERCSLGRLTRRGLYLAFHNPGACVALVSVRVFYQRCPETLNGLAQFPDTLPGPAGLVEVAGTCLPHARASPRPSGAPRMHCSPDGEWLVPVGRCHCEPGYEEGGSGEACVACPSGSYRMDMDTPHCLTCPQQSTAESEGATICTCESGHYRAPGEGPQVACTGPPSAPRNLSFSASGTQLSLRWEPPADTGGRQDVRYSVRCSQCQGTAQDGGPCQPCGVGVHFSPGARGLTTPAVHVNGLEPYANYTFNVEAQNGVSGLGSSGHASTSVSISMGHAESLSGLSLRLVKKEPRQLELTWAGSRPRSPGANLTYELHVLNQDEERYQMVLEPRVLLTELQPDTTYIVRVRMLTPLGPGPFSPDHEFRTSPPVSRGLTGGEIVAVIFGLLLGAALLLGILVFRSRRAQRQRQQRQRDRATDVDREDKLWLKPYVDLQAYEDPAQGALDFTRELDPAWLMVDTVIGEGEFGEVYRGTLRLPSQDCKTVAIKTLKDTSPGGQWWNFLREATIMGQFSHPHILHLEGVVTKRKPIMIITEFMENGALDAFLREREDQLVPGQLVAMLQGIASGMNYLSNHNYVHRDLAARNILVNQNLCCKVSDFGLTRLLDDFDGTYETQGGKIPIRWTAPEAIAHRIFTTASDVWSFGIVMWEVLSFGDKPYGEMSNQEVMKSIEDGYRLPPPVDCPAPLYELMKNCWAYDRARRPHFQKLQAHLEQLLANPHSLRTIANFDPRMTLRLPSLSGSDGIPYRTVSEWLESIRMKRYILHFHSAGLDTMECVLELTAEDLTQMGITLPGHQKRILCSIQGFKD"}, "EphA5(h)": {"target": "T3, EphA5(h) (Homo sapiens, UniProt P54756)", "T3 construct": "purchased Millipore KinaseProfiler", "T3 sequence (P54756 25-1037)": "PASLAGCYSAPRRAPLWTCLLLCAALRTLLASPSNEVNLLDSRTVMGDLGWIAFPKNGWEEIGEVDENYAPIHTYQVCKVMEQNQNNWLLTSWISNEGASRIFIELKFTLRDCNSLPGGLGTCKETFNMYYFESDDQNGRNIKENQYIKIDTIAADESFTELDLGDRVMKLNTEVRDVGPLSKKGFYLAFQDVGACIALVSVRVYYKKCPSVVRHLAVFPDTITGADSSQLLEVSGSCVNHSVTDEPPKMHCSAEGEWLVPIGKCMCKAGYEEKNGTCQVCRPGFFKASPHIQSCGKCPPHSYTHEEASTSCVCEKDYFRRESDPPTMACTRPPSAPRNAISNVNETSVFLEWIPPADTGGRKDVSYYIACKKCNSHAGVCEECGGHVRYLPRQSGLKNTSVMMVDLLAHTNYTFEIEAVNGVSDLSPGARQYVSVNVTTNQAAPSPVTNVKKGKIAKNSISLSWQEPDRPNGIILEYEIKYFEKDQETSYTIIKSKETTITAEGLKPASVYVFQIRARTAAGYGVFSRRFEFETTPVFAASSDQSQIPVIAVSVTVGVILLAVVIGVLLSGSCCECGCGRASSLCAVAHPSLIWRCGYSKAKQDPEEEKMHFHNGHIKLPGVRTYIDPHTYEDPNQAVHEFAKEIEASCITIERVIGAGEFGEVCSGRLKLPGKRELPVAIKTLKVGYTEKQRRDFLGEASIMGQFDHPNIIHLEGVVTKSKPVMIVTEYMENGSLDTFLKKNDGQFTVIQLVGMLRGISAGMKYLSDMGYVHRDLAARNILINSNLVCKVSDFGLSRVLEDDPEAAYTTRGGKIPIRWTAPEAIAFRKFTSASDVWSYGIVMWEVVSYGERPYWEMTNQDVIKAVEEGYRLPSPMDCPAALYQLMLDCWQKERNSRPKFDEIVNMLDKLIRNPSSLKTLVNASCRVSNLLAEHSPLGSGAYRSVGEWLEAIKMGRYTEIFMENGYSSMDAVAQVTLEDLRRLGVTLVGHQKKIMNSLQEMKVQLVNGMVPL"}, "Fer(h)": {"target": "T4, Fer(h) (Homo sapiens, UniProt P16591)", "T4 construct": "purchased Millipore KinaseProfiler"}, "FGFR3(h)": {"target": "T5, FGFR3(h) (Homo sapiens, UniProt P22607)", "T5 construct": "purchased Millipore KinaseProfiler", "T5 sequence (P22607 23-806)": "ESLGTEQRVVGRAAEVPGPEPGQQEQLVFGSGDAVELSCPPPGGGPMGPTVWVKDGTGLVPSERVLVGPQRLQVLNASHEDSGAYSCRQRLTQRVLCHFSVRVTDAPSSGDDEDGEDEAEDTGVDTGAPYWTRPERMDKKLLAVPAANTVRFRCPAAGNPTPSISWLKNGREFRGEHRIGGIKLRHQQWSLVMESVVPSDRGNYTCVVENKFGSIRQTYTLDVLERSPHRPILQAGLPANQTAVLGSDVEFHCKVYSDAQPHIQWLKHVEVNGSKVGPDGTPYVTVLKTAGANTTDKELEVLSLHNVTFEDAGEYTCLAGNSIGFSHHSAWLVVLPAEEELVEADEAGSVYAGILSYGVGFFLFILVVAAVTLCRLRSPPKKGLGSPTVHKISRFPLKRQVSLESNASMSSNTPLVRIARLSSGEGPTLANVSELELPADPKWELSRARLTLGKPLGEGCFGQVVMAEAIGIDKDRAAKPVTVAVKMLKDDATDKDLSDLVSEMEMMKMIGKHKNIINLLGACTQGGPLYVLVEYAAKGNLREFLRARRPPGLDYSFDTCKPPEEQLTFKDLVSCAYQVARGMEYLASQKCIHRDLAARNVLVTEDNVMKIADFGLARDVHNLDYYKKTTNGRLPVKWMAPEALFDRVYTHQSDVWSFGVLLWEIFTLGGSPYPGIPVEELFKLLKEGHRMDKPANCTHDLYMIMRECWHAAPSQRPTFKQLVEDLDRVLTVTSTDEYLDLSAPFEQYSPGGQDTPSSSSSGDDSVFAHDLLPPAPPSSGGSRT"}, "Flt1(h)": {"target": "T6, Flt1(h) (Homo sapiens, UniProt P17948)", "T6 construct": "purchased Millipore KinaseProfiler"}, "Mer(h)": {"target": "T7, Mer(h) (Homo sapiens, UniProt Q12866)", "T7 construct": "purchased Millipore KinaseProfiler", "T7 sequence (Q12866 21-999)": "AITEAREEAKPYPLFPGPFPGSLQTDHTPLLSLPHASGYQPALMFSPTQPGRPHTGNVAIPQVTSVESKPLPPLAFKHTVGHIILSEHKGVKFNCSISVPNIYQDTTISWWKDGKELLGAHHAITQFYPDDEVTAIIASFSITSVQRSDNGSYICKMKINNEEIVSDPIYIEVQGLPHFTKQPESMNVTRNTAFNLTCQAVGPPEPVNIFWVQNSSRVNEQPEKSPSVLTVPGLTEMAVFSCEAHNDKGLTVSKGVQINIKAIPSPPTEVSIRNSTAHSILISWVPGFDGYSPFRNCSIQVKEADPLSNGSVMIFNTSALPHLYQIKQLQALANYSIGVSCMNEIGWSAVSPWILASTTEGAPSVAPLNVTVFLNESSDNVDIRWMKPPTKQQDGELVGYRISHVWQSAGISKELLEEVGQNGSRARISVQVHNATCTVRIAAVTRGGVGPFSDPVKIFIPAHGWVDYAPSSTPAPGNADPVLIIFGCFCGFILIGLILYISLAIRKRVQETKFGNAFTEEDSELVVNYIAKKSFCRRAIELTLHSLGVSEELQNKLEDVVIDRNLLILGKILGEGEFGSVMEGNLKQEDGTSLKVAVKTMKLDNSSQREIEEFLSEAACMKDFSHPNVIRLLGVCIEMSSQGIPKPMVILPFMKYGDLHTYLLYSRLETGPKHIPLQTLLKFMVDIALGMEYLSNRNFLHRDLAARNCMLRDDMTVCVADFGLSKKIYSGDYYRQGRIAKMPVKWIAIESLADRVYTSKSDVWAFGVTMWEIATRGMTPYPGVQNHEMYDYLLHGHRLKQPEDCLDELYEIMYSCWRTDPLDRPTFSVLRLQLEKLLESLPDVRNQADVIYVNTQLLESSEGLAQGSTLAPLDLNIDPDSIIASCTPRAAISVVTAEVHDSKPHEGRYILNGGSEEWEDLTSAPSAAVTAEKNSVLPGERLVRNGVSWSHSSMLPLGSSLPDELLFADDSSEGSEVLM"}, "MRCKα(h)": {"target": "T8, MRCKα(h) (Homo sapiens, UniProt Q5VT25)", "T8 construct": "purchased Millipore KinaseProfiler"}, "Ret(V804M)(h)": {"target": "T9, Ret(V804M)(h) (Homo sapiens, UniProt P07949, V804M)", "T9 construct": "purchased Millipore KinaseProfiler", "T9 sequence (P07949 29-1114 V804M)": "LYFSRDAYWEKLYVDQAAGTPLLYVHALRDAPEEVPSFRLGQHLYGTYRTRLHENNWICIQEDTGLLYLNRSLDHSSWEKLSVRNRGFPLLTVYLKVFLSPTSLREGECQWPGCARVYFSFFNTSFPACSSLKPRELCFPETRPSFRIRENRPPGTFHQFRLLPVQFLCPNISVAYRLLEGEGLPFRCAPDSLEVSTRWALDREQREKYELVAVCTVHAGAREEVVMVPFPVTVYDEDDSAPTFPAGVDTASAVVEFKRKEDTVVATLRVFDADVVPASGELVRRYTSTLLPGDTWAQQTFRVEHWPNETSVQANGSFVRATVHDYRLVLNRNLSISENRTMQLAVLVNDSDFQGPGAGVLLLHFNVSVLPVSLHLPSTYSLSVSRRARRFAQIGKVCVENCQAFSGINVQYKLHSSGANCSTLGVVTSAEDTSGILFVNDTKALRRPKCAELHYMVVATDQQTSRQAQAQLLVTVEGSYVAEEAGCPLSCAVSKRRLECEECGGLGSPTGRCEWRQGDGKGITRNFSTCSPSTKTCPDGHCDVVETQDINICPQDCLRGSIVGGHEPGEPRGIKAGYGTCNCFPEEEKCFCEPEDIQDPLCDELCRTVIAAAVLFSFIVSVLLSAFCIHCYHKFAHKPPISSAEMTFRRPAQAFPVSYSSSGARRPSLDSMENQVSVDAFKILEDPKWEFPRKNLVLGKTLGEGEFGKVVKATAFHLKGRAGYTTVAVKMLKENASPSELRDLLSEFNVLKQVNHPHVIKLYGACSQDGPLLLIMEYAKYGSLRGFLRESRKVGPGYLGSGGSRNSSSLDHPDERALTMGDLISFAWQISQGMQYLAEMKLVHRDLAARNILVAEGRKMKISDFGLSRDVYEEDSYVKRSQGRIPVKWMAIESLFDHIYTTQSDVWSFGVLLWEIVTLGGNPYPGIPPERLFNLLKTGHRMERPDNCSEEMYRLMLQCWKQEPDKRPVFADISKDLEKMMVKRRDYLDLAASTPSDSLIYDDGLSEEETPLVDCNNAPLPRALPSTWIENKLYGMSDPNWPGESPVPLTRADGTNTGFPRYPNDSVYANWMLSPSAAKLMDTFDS"}, "RIPK2(h)": {"target": "T10, RIPK2(h) (Homo sapiens, UniProt O43353)", "T10 construct": "purchased Millipore KinaseProfiler", "T10 sequence (O43353 whole entry)": "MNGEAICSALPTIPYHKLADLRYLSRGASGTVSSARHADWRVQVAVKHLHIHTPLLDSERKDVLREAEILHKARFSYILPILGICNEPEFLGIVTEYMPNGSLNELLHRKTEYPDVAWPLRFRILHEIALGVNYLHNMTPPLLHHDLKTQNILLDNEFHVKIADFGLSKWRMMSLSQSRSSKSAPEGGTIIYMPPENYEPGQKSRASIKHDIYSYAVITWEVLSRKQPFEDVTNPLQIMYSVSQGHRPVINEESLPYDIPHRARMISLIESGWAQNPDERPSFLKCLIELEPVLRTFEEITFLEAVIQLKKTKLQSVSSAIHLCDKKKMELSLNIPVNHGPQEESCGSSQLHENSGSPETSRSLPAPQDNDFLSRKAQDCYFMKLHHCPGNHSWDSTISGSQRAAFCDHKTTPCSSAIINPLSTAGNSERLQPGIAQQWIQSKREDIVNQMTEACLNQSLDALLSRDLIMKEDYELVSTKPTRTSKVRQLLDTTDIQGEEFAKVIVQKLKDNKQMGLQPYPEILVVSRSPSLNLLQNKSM"}, "Ron(h)": {"target": "T11, Ron(h) (Homo sapiens, UniProt Q04912)", "T11 construct": "purchased Millipore KinaseProfiler", "T11 sequence (Q04912 25-1400)": "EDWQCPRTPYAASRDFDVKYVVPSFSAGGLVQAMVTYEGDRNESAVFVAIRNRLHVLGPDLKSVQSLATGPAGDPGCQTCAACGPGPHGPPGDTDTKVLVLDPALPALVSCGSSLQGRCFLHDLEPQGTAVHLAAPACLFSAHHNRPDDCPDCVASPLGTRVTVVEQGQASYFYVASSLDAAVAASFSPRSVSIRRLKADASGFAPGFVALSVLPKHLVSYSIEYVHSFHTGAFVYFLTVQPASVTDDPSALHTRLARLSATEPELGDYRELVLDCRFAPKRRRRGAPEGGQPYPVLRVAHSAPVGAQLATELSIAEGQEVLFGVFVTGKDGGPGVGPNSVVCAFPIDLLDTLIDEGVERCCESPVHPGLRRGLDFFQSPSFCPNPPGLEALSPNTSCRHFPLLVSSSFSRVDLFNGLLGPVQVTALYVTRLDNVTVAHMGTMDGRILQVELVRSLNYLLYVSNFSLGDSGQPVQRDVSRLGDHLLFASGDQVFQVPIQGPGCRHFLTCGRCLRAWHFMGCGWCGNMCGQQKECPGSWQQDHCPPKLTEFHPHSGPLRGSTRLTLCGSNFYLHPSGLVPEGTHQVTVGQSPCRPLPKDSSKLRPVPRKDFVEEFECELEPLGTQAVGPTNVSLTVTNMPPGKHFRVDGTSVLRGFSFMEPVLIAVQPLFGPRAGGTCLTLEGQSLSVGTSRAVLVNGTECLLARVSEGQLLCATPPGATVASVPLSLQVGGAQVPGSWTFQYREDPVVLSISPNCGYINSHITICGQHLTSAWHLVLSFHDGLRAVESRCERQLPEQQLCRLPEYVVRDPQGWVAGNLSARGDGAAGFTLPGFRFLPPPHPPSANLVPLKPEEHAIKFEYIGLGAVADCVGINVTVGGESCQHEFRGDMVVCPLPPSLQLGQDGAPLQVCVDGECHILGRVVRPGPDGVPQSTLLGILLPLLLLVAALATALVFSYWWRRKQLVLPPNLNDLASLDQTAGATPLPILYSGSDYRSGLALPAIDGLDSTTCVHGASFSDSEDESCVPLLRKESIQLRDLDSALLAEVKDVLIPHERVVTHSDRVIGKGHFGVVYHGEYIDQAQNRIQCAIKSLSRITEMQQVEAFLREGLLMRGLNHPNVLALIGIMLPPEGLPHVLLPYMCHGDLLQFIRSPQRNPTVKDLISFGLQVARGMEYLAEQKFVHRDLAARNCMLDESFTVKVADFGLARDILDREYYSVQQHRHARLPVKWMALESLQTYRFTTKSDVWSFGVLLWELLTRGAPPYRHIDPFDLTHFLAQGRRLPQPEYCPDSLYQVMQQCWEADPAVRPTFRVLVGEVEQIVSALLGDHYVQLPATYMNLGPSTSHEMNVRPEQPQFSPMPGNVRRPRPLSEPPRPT"}, "Src(1-530)(h)": {"target": "T12, Src(1-530)(h) (Homo sapiens, UniProt P12931)", "T12 construct": "purchased Millipore KinaseProfiler"}}, "note": "Like-named read-outs stand apart in the source and are kept apart here."}
{"compound": "Cn1ncc(Cl)c1-c1cc(C(=O)N[C@H](CN)Cc2cccc(F)c2)sc1Cl", "note": "[GSK2110183]", "values": [{"measurement": "inhibition at 0.5 µM", "setting": "CDK2/cyclinE(h)", "result": 3, "unit": "%"}, {"measurement": "inhibition at 10 µM", "setting": "CDK2/cyclinE(h)", "result": 12, "unit": "%"}, {"measurement": "inhibition at 0.5 µM", "setting": "EphA1(h)", "result": -14, "unit": "%"}, {"measurement": "inhibition at 10 µM", "setting": "EphA1(h)", "result": -5, "unit": "%"}, {"measurement": "inhibition at 0.5 µM", "setting": "EphA5(h)", "result": 5, "unit": "%"}, {"measurement": "inhibition at 10 µM", "setting": "EphA5(h)", "result": 9, "unit": "%"}, {"measurement": "inhibition at 0.5 µM", "setting": "Fer(h)", "result": -8, "unit": "%"}, {"measurement": "inhibition at 10 µM", "setting": "Fer(h)", "result": 16, "unit": "%"}, {"measurement": "inhibition at 0.5 µM", "setting": "FGFR3(h)", "result": -6, "unit": "%"}, {"measurement": "inhibition at 10 µM", "setting": "FGFR3(h)", "result": 9, "unit": "%"}, {"measurement": "inhibition at 0.5 µM", "setting": "Flt1(h)", "result": -35, "unit": "%"}, {"measurement": "inhibition at 10 µM", "setting": "Flt1(h)", "result": -28, "unit": "%"}, {"measurement": "inhibition at 0.5 µM", "setting": "Mer(h)", "result": 2, "unit": "%"}, {"measurement": "inhibition at 10 µM", "setting": "Mer(h)", "result": 65, "unit": "%"}, {"measurement": "inhibition at 0.5 µM", "setting": "MRCKα(h)", "result": -9, "unit": "%"}, {"measurement": "inhibition at 10 µM", "setting": "MRCKα(h)", "result": -5, "unit": "%"}, {"measurement": "inhibition at 0.5 µM", "setting": "Ret(V804M)(h)", "result": 5, "unit": "%"}, {"measurement": "inhibition at 10 µM", "setting": "Ret(V804M)(h)", "result": 26, "unit": "%"}, {"measurement": "inhibition at 0.5 µM", "setting": "RIPK2(h)", "result": -8, "unit": "%"}, {"measurement": "inhibition at 10 µM", "setting": "RIPK2(h)", "result": -3, "unit": "%"}, {"measurement": "inhibition at 0.5 µM", "setting": "Ron(h)", "result": 12, "unit": "%"}, {"measurement": "inhibition at 10 µM", "setting": "Ron(h)", "result": 30, "unit": "%"}, {"measurement": "inhibition at 0.5 µM", "setting": "Src(1-530)(h)", "result": -12, "unit": "%"}, {"measurement": "inhibition at 10 µM", "setting": "Src(1-530)(h)", "result": 61, "unit": "%"}]}
{"compound": "Cn1ncc(Cl)c1-c1cc(C(=O)N[C@H](CN)Cc2ccc(F)c(F)c2)oc1Cl", "note": "[GSK2141795]", "values": [{"measurement": "inhibition at 0.5 µM", "setting": "CDK2/cyclinE(h); 0.5 µM, read-out: % Inhibition", "result": -2, "unit": "%"}, {"measurement": "inhibition at 10 µM", "setting": "CDK2/cyclinE(h); 10 µM, read-out: % Inhibition", "result": 29, "unit": "%"}, {"measurement": "inhibition at 0.5 µM", "setting": "EphA1(h); 0.5 µM, read-out: % Inhibition", "result": 4, "unit": "%"}, {"measurement": "inhibition at 10 µM", "setting": "EphA1(h); 10 µM, read-out: % Inhibition", "result": 53, "unit": "%"}, {"measurement": "inhibition at 0.5 µM", "setting": "EphA5(h); 0.5 µM, read-out: % Inhibition", "result": -6, "unit": "%"}, {"measurement": "inhibition at 10 µM", "setting": "EphA5(h); 10 µM, read-out: % Inhibition", "result": 10, "unit": "%"}, {"measurement": "inhibition at 0.5 µM", "setting": "Fer(h); 0.5 µM, read-out: % Inhibition", "result": 1, "unit": "%"}, {"measurement": "inhibition at 10 µM", "setting": "Fer(h); 10 µM, read-out: % Inhibition", "result": -4, "unit": "%"}, {"measurement": "inhibition at 0.5 µM", "setting": "FGFR3(h); 0.5 µM, read-out: % Inhibition", "result": -14, "unit": "%"}, {"measurement": "inhibition at 10 µM", "setting": "FGFR3(h); 10 µM, read-out: % Inhibition", "result": 2, "unit": "%"}, {"measurement": "inhibition at 0.5 µM", "setting": "Flt1(h); 0.5 µM, read-out: % Inhibition", "result": -4, "unit": "%"}, {"measurement": "inhibition at 10 µM", "setting": "Flt1(h); 10 µM, read-out: % Inhibition", "result": 21, "unit": "%"}, {"measurement": "inhibition at 0.5 µM", "setting": "Mer(h); 0.5 µM, read-out: % Inhibition", "result": 10, "unit": "%"}, {"measurement": "inhibition at 10 µM", "setting": "Mer(h); 10 µM, read-out: % Inhibition", "result": 63, "unit": "%"}, {"measurement": "inhibition at 0.5 µM", "setting": "MRCKα(h); 0.5 µM, read-out: % Inhibition", "result": -6, "unit": "%"}, {"measurement": "inhibition at 10 µM", "setting": "MRCKα(h); 10 µM, read-out: % Inhibition", "result": -2, "unit": "%"}, {"measurement": "inhibition at 0.5 µM", "setting": "Ret(V804M)(h); 0.5 µM, read-out: % Inhibition", "result": -2, "unit": "%"}, {"measurement": "inhibition at 10 µM", "setting": "Ret(V804M)(h); 10 µM, read-out: % Inhibition", "result": 25, "unit": "%"}, {"measurement": "inhibition at 0.5 µM", "setting": "RIPK2(h); 0.5 µM, read-out: % Inhibition", "result": 3, "unit": "%"}, {"measurement": "inhibition at 10 µM", "setting": "RIPK2(h); 10 µM, read-out: % Inhibition", "result": 15, "unit": "%"}, {"measurement": "inhibition at 0.5 µM", "setting": "Ron(h); 0.5 µM, read-out: % Inhibition", "result": 5, "unit": "%"}, {"measurement": "inhibition at 10 µM", "setting": "Ron(h); 10 µM, read-out: % Inhibition", "result": 73, "unit": "%"}, {"measurement": "inhibition at 0.5 µM", "setting": "Src(1-530)(h); 0.5 µM, read-out: % Inhibition", "result": -30, "unit": "%"}, {"measurement": "inhibition at 10 µM", "setting": "Src(1-530)(h); 10 µM, read-out: % Inhibition", "result": 30, "unit": "%"}]}
